According to article PMC9508196 (Scientific Reports, 2022):
No end group written: not given here.

Test system: Salmonella Typhimurium ATCC 13,311
Format: cell-based
Conditions: S. Typhimurium ATCC 13,311; broth microdilution, MHB, 24 h, 37 °C, triplicate
Summary of the method: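 Read-out: MIC from modified CLSI microdilution in MHB, starting inoculum 2–8 × 10^5 CFU/mL of mid-log cultures exposed to peptides or antibiotics. Bactericidal endpoint was the lowest peptide level yielding no colonies after plating clear wells.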

Question: How did the MIC turn out when RLFRRVKKVAGKIAKRIWK-NH2 [AP19] was run?
Answer: 1.95 µg/mL
